This is an account of results in patent US5525596A, “Absorption enhancer/solubilizer combination for improved bioavailability of a zwitterionic compound” (Merck & Co., Inc., priority 1994, dated 1996).

Data set [1] is described as follows: Biliary excretion in rats. It counts as in vivo, rat. On the procedure: (§1) Solutions of palmitoyl carnitine, β-cyclodextrin and an [R-(R*,R*)]-3-[(2-hydroxypropyl)amino]-3-methyl-N-[2,3,4,5-tetrahydro-2-oxo-1-[[2'-(H-tetrazol-5-yl)[1,1'-biphenyl]-4-yl]methyl]-1H-1-benzazepin-3-yl]butanamide having the following structure: [drawing 1] hereinafter referred to as [R-(R*,R*)]-3-[(2-hydroxypropyl)amino]-3-methyl-N-[2,3,4,5-tetrahydro-2-oxo-1-[[2'-(H-tetrazol-5-yl)[1,1'-biphenyl]-4-yl]methyl]-1H-1-benzazepin-3-yl]butanamide were prepared such that [R-(R*,R*)]-3-[(2-hydroxypropyl)amino]-3-methyl-N-[2,3,4,5-tetrahydro-2-oxo-1-[[2'-(H-tetrazol-5-yl)[1,1'-biphenyl]-4-yl]methyl]-1H-1-benzazepin-3-yl]butanamide was maintained at 2 mg/ml. All solutions were prepared in Krebs-Henseleit buffer at Ph 7.4. The solutions were administered to ligated sections of the jejunum of anesthetized rats. […] The bile was collected in 15 minute intervals for 3.5 hours and analyzed for [R-(R*,R*)]-3-[(2-hydroxypropyl)amino]-3-methyl-N-[2,3,4,5-tetrahydro-2-oxo-1-[[2'-(H-tetrazol-5-yl)[1,1'-biphenyl]-4-yl]methyl]-1H-1-benzazepin-3-yl]butanamide content. From the bile volume, the total amount of drug eliminated could be calculated. After an IV dose, 92% of the drug is found in the bile. Therefore all value were divided by 0.92 to give true absorption values. These values are given in table 1, along with standard deviations which were observed.

Data set [2] is described as follows: Absorption of solid formulations (powders, tablets, beads) from unligated sections of the jejunum of anesthetized rats (bile collection). It counts as in vivo. The settings on record: rat. The method, then:
as §1
Powders were prepared so as to contain in each dose, 2 mg/kg of [R-(R*,R*)]-3-[(2-hydroxypropyl)amino]-3-methyl-N-[2,3,4,5-tetrahydro-2-oxo-1-[[2'-(H-tetrazol-5-yl)[1,1'-biphenyl]-4-yl]methyl]-1H-1-benzazepin-3-yl]butanamide, 0-10 mg/kg palmitoyl carnitine chloride, 0-15 mg/kg β-cyclodextrin and microcrystalline cellulose. The powders were administered to unligated sections of the jujunum of anesthetized rats. Bile was collected and the absorption of [R-(R*,R*)]-3-[(2-hydroxypropyl)amino]-3-methyl-N-[2,3,4,5-tetrahydro-2-oxo-1-[[2'-(H-tetrazol-5-yl)[1,1'-biphenyl]-4-yl]methyl]-1H-1-benzazepin-3-yl]butanamide was determined as in Example 1. The results of these studies are provided in Table 2, along with observed standard deviations.
Lyophilized preparations of [R-(R*,R*)]-3-[(2-hydroxypropyl)amino]-3-methyl-N-[2,3,4,5-tetrahydro-2-oxo-1-[[2'-(H-tetrazol-5-yl)[1,1'-biphenyl]-4-yl]methyl]-1H-1-benzazepin-3-yl]butanamide were prepared from solutions containing 2 mg/ml of [R-(R*,R*)]-3-[(2-hydroxypropyl)amino]-3-methyl-N-[2,3,4,5-tetrahydro-2-oxo-1-[[2'-(H-tetrazol-5-yl)[1,1'-biphenyl]-4-yl]methyl]-1H-1-benzazepin-3-yl]butanamide and 15 mg/ml of β-cyclodextrin or 20 mg/ml hydroxypropyl-β-cyclodextrin. The lyophilized preparations were mixed with palmitoyl carnitine chloride and microcrystalline cellulose and compressed into tablets. The tablets contained 2 mg/kg of [R-(R*,R*)]-3-[(2-hydroxypropyl)amino]-3 -methyl -N-[2,3,4,5,-tetrahydro-2-oxo-1-[[2'-(H-tetrazol-5-yl)[1,1'biphenyl]-4-yl]methyl-1H1-benzazepin-3-yl]butanamide and 10 mg/kg palmitoyl carnitine chloride. The tablets were administered to the unligated sections of the jejunum of anesthetized rats. Bile was collected and the absorption of [R-(R*,R*)]-3-[(2-hydroxypropyl) amino]-3 -methyl -N- [2,3,4,5 -tetrahydro-2-oxo-1-[[2'-(H-tetrazol-5-yl)[1,1'-biphenyl]-4-yl]methyl]-1H- 1-benzazepin-3-yl]butanamide determined as in Example 1. The percentage absorption of [R-(R*,R*)]-3-[(2-hydroxypropyl)amino]-3-methyl-N-[2,3,4,5-tetrahydro-2-oxo-1-[[2'-(H-tetrazol-5-yl)[1,1'-biphenyl]-4-yl]methyl]-1H-1-benzazepin-3-yl]butanamide from the lyophilized formulation containing β-cyclodextrinwas 28.2±18.3 and from the hydroxpropyl-β-cyclodextrin, 7.5±6.2.
Fifteen parts of water were added to a mixture of [R-(R*,R*)]-3-[(2-hydroxypropyl)amino]-3-methyl-N-[2,3,4,5-tetrahydro-2-oxo-1-[[2'-(H-tetrazol-5-yl)[1,1'-biphenyl]-4-methyl]-1H-1-benzazepin-3-yl]butanamide, β-cyclodextrin, palmitoyl carnitine chloride, micro-crystalline cellulose and starct (2:15:10:15:10). The preparation was extruded through a screen ([…]) and spheronized. […]

The nature of data set [3]: Jejunal absorption of drug solutions from ligated sections of the jejunum of anesthetized rats (bile collection). The settings on record: rat, pH 7.4, solution 2 mg/ml drug, read-out: % of Dose Absorbed Relative to IV (+/- s.d.). It is filed as in vivo. On the procedure:
as §1

Data set [4] is described as follows: Plasma/blood exposure after administration of compressed tablets to the duodenum of dogs. It counts as in vivo, dog. The note with it: tablet, 1 mg/kg drug, 10 mg/kg palmitoyl carnitine chloride, four hours. On the procedure: Compressed tablets were prepared with and without 112 mg β-cyclodextrin (7.5 mg/kg), containing 15 mg of [R-(R*,R*)]-3-[(2-hydroxypropyl)amino]-3-methyl-N-[2,3,4,5-tetrahydro-2-oxo-1[[2'-(H-tetrazol-5-yl)[1,1'-biphenyl]-4-yl]methyl]-1H-1-benzazepin-3-yl]butanamide (1 mg/kg) and 150 mg palmitoyl carnitine chloride (10 mg/kg) in a tablet matrix containing 203 mg microcrystalline cellulose, 100 mg lactose, 20 mg corn starch and 2 mg magnesium stearate. The tablets were administered to the duodenum of dogs through a surgically prepared fistual. Serial blood samples were taken from the dogs for four hours after dosing and analyzed for [R-(R*,R*)]-3-[(2-hydroxypropyl)amino]-3-methyl-N -[2,3,4,5-tetra-hydro-2-oxo-1-[[2'-(H-tetrazol-5-yl)[1,1'-biphenyl]-4-yl]methyl]-1H-1-benzazepin-3-yl]butanamide. The results given as resulting area under [R-(R*,R*)]-3-[(2-hydroxy-propyl)amino] -3-methyl-N-[2,3,4,5-tetrahydro-2-oxo- 1-[[2'-(H-tetrazol-5-yl)[1,1'-biphenyl]-4-yl]methyl]-1H-1-benzazepin-3-yl]butanamide concentration-time curve ± standard deviations, are 361±168 ng min/ml in the absence of β-cyclodextrin and […] in the presence of β-cyclodextrin.

Like-named read-outs stand apart in the source and are kept apart here.

As for `C[C@@H](O)CNC(C)(C)CC(=O)N[C@@H]1CCc2ccccc2N(Cc2ccc(-c3ccccc3-c3nnn[nH]3)cc2)C1=O` [[R-(R*,R*)]-3-[(2-hydroxypropyl)amino]-3-methyl-N-[2,3,4,5-tetrahydro-2-oxo-1-[[2'-(H-tetrazol-5-yl)[1,1'-biphenyl]-4-yl]methyl]-1H-1-benzazepin-3-yl]butanamide], the route of excretion result in data set [1] is given as “excreted almost exclusively unchanged in the bile”. For the same compound, the dose excreted in data set [1] (rat, bile, after an IV dose, read-out: drug found in the bile) was 92%. Moreover, the Fa in data set [2] (2 mg/kg, powder, 2 mg/kg drug, palmitoyl carnitine chloride 0 mg/kg, β-cyclodextrin 0 mg/kg, read-out: absorption determined as in Example 1 (± standard deviation)) amounted to 0.18 ± 0.26%; in data set [2] (2 mg/kg, powder, 2 mg/kg drug, palmitoyl carnitine chloride 10 mg/kg, β-cyclodextrin 0 mg/kg, read-out: absorption determined as in Example 1 (± standard deviation)) it was 3.3 ± 1.9%; in data set [2] (2 mg/kg, powder, 2 mg/kg drug, palmitoyl carnitine chloride 10 mg/kg, β-cyclodextrin 7.5 mg/kg, read-out: absorption determined as in Example 1 (± standard deviation)), 8.9 ± 7.6%; in data set [2] (2 mg/kg, powder, 2 mg/kg drug, palmitoyl carnitine chloride 10 mg/kg, β-cyclodextrin 15 mg/kg, read-out: absorption determined as in Example 1 (± standard deviation)), 14.8 ± 9.8%; in data set [2] (2 mg/kg, tablet of lyophilized formulation containing β-cyclodextrin (15 mg/ml in solution), 2 mg/kg drug, 10 mg/kg palmitoyl carnitine chloride, read-out: percentage absorption) it was 28.2 ± 18.3%; in data set [2] (spheronized beads, drug:β-cyclodextrin:palmitoyl carnitine chloride:microcrystalline cellulose:starch 2:15:10:15:10, read-out: absorption), 8.8%. Besides, the Fa in data set [2] (tablet of lyophilized formulation containing hydroxypropyl-β-cyclodextrin (20 mg/ml in solution), 2 mg/kg drug, 10 mg/kg palmitoyl carnitine chloride, read-out: percentage absorption) came to 7.5 ± 6.2%. In addition, the Fa at 3.5 h in data set [3] (palmitoyl carnitine chloride 0 mg/kg, β-cyclodextrin 0 mg/kg) turned out to be 4.98 ± 5.67%; in data set [3] (palmitoyl carnitine chloride 0 mg/kg, β-cyclodextrin 7.5 mg/kg) it was 3.1 ± 1.59%; in data set [3] (palmitoyl carnitine chloride 0 mg/kg, β-cyclodextrin 15 mg/kg), 12 ± 7.23%; in data set [3] (palmitoyl carnitine chloride 5 mg/kg, β-cyclodextrin 0 mg/kg) it was 11.9 ± 2.6%; in data set [3] (palmitoyl carnitine chloride 5 mg/kg, β-cyclodextrin 7.5 mg/kg) it was 14 ± 5.4%; in data set [3] (palmitoyl carnitine chloride 5 mg/kg, β-cyclodextrin 15 mg/kg), 20.4 ± 15.2%. Further, the Fa at 3.5 h in data set [3] (palmitoyl carnitine chloride 10 mg/kg, β-cyclodextrin 0 mg/kg) came to 22.6 ± 13.5%; in data set [3] (palmitoyl carnitine chloride 10 mg/kg, β-cyclodextrin 7.5 mg/kg), 29.6 ± 8.2%; in data set [3] (palmitoyl carnitine chloride 10 mg/kg, β-cyclodextrin 15 mg/kg), 49.3 ± 13.4%. Besides, in data set [4] (dog, blood, absence of β-cyclodextrin, read-out: area under concentration-time curve ± standard deviations (converted)), the AUC at 4 h was 6.02 ng·h/mL. For the same compound, the area under concentration-time curve ± standard deviations in data set [4] (presence of β-cyclodextrin (7.5 mg/kg)) was 19.8 ± 8.18 ng·h/mL.
